# Test results reported in patent US20260248765A1, “TIME RELEASE SLEEP AID SYSTEM” (NightWise, LLC, priority 2017, published 2026).
# Assay: Release time based on dissolution times of each ingredient in water
# Assay type: physicochemical
# Conditions: soft chew composition of Table 2
# Description: The release time was determined based on dissolution times of each ingredient in water.
row,Release Time [min],Compound
1,0,"Cc1ncc(COP(=O)(O)O)c(C=O)c1O.O [Vitamin B6, pyridoxal-5-phosphate monohydrate]"
2,0,"C/C1=C2/[N-][C@H]([C@H](CC(N)=O)[C@@]2(C)CCC(=O)NC[C@@H](C)OP(=O)([O-])O[C@H]2[C@@H](O)[C@@H](n3cnc4cc(C)c(C)cc43)O[C@@H]2CO)[C@]2(C)N=C(/C(C)=C3N=C(/C=C4N=C1[C@@H](CCC(N)=O)C\4(C)C)[C@@H](CCC(N)=O)[C@]\3(C)CC(N)=O)[C@@H](CCC(N)=O)[C@]2(C)CC(N)=O.[CH3-].[Co+3] [Vitamin B12, methylcobalamin]"

# The remaining lines, values behind:
row,Compound,Release Time [min]
1,Cc1cc2nc3c(=O)[nH]c(=O)nc-3n(C[C@H](O)[C@H](O)[C@H](O)COP(=O)([O-])O)c2cc1C.[Na+] [Riboflavin 5′-Phosphate Sodium],0
2,N[C@@H](Cc1c[nH]c2ccc(O)cc12)C(=O)O [5-Hydroxytryptophan],0
3,"COc1ccc2[nH]cc(CCNC(C)=O)c2c1 [Melatonin, reference compound]",0
4,NCC(=O)[O-].NCC(=O)[O-].[Mg+2] [Magnesium Glycinate],0
5,"CN1c2c(nc(N)[nH]c2=O)NC[C@@H]1CNc1ccc(C(=O)N[C@@H](CCC(=O)O)C(=O)O)cc1.N[C@H]1C(O)O[C@H](CO)[C@@H](O)[C@@H]1O [QUATREFOLIC ™, (6S)-5-methyltetrahydrofolic acid, glucosamine salt]",0
6,NCCCC(=O)O [PHARMAGABA ™],0
